How the values were obtained:
[1] = tested on: immature dexamethasone treated male rats; assay: in vivo antiglucocorticoid activity in immature dexamethasone treated male rats (procedure of Kloosterboer et al); parameters: species or system rat; settings: for threshold dose for demonstrating in vivo antiglucocorticoid effects: rat
[2] = tested on: patients with psychotic major depression; settings: 8-12 mg/kg/day over 4 days (WO 99/17779); cited from earlier work
[3] = biological target: T1, glucocorticoid receptor (Homo sapiens, UniProt P04150); assay: in vitro binding to the glucocorticoid receptor
T1 sequence (P04150 1-777): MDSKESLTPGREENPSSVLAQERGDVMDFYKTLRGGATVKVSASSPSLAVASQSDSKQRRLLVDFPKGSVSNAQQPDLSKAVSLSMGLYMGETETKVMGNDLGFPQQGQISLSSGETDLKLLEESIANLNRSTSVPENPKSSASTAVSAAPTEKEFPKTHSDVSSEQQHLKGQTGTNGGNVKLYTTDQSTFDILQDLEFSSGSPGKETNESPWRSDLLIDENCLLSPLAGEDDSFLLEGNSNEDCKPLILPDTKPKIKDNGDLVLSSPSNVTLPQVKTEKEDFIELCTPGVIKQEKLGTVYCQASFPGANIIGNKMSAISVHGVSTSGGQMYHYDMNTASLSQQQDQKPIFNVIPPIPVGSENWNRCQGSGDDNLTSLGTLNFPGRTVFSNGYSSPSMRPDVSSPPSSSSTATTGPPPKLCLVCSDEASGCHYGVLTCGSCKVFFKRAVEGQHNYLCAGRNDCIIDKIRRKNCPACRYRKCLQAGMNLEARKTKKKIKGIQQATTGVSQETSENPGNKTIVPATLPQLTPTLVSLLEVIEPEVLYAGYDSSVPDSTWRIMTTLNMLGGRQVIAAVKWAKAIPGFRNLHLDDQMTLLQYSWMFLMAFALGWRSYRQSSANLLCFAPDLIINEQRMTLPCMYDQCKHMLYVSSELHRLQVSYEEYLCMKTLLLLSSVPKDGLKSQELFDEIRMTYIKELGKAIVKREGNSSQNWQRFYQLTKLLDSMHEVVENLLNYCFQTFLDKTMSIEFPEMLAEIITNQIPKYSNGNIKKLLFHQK

[4] = tested on: (healthy) humans; assay: clinical study of antiglucocorticoid activity in healthy humans (cortisol increase, dexamethason antagonism); assay type: in vivo, human
[5] = tested on: depressed patients (Major Depressive Disorder); assay: double blind, 4 week, paroxetine controlled study in patients with Major Depressive Disorder (HAMD-21); assay type: in vivo, human; settings: for difference on the Hamilton scale versus paroxetine (onset of antidepressant effect): 150 mg treatment group
Method: A double blind, 4 week, paroxetine controlled study of Org 34517 in depressed patients was carried out. Paroxetine is a selective serotonin re-uptake inhibitor which is recognized as an effective antidepressant for major depression.
Patients were randomly allocated to one of three treatment groups. Group I patients (Org 150 group: 50 patients) received 2 capsules with 75 mg of Org 34517 and one placebo (total daily dose 150 mg) for the first 2 weeks and 2 capsules with 75 mg Org 34517 and 1 capsule with 150 mg (total daily dose 300 mg) the next 2 weeks; Group II patients (Org 450 group: 46 patients) received 3 capsules with 150 mg Org 34517 (total daily dose 450 mg) in the first 2 weeks and 4 capsules of Org 34517 (total daily dose 600 mg) in the next 2 weeks; Group III patients (paroxetine group: 44 patients) received 2 capsules with 10 mg paroxetine and one placebo capsule (total daily dose 20 mg) for the first 2 weeks, followed by 2 capsules of 10 mg and one capsule of 20 mg paroxetine (total daily dose 40 mg) in the next 2 weeks. Medication was administered orally in the morning. Efficacy assessment was done on days 4, 7, 10, 14, 21, 28 and 35 by using the 21-item HAMD scale.
Afternoon cortisol plasma levels (ACT=afternoon cortisol test) were measured as described by Halbreich et al (J. Clin. Endocrinol. Metab. 54(6), 1262, 1982).

potency in in vitro binding to the glucocorticoid receptor, relative to mifepristone [3] [%] | SMILES | threshold dose for demonstrating in vivo antiglucocorticoid effects [1] [mg/kg] | treatment of psychosis associated with psychotic major depression [2] | antiglucocorticoid activity: effect (weight gain) on body weight, adrenals, thymus and spleen ([1]; orally applied, 10 mg/kg to 40 mg/kg, immature dexamethasone treated male rats) | antiglucocorticoid potency relative to mifepristone, estimated on the amount of dexamethason antagonism [4] [%] | antiglucocorticoid potency relative to mifepristone, estimated on the basis of the cortisol increase [4] | difference on the Hamilton scale versus paroxetine (onset of antidepressant effect) ([5]; all patients, day 10, FIG. 1) [point] | onset of antidepressant effect ([5]; daily dosage not exceeding 300 mg compared with 450 mg or more) | difference on the Hamilton scale versus paroxetine (onset of antidepressant effect) ([5]; dexamethason non-suppressors, day 10, FIG. 3) [point] | difference on the Hamilton scale versus paroxetine (onset of antidepressant effect) ([5]; patients with afternoon plasma cortisol higher than 10 μg/dl at start, day 10, FIG. 2) [point]
 | CC#C[C@]1(O)CC[C@H]2[C@@H]3CCC4=CC(=O)CCC4=C3[C@@H](c3ccc(N(C)C)cc3)C[C@@]21C [mifepristone, 17β-hydroxy-11β-(4-dimethylaminophenyl)-17α-(1-propynyl)estra-4,9-dien-3-one, reference compound] | 5 | effective |  |  |  |  |  |  | 
52 | CC#C[C@]1(O)CC[C@H]2[C@@H]3CCC4=CC(=O)CCC4=C3[C@@H](c3ccc4c(c3)OCO4)C[C@@]21C [Org 34517, (11β,17β)-11-(1,3-benzodioxol-5-yl)-17-hydroxy-17-(1-propynyl)estra-4,9-dien-3-one] | 20 |  | proved to increase with the dose | 17 | 10-25% | ~2 | fast onset of antidepressant effect | ~6 | ~4
